Common to all, as to experiment: Test B pre-/postemergence plant response
Assay type in all cases: in vivo

Assay [1] concerns morningglory (Ipomoea spp.). Particulars: 1000 g ai/ha, 0 to 100 scale (0 no effect, 100 complete control); for pest or weed control at 1000 g/ha: Ipomoea, 240 h, read-out: Plant response rating, Morningglory. An excerpt: (§1) Seeds of plant species selected from bamyardgrass (Echinochloa crus-galli), kochia (Kochia scoparia), ragweed (common ragweed, Ambrosia elatior), Italian ryegrass (Lolium multiflorum), large (Lg) crabgrass (Digitaria sanguinalis), giant foxtail (Setaria faberii), momingglory (Ipomoea spp.), pigweed (Amaranthus retroflexus), velvetleaf (Abutilon theophrasti), wheat (Triticum aestivum), and corn (Zea mays) were planted into a blend of loam soil and sand and treated preemergence with a directed soil spray using test chemicals formulated in a non-phytotoxic solvent mixture which included a surfactant. At the same time, plants selected from these crop and weed species and also blackgrass (Alopecurus myosuroides), and galium (catchweed bedstraw, Galium aparine) were planted in pots containing the same blend of loam soil and sand and treated with postemergence applications of test chemicals formulated in the same manner. Plants ranged in height from 2 to 10 cm and were in the one- to two-leaf stage for the postemergence treatment. Treated plants and untreated controls were maintained in a greenhouse for approximately 10 days, after which time all treated plants were compared to untreated controls and visually evaluated for injury. Plant response ratings, summarized in Table B, are based on a 0 to 100 scale where 0 is no effect and 100 is complete control. A dash (-) response means no test result.

Assay [2] has as its system large (Lg) crabgrass (Digitaria sanguinalis). The settings on record: 1000 g ai/ha, 0 to 100 scale (0 no effect, 100 complete control); for pest or weed control at 1000 g/ha: Digitaria sanguinalis, 240 h, read-out: Plant response rating, Crabgrass, Large.
Excerpt: as §1

The test system of assay [3] is wheat (Triticum aestivum). Particulars: 1000 g ai/ha, 0 to 100 scale (0 no effect, 100 complete control); for plant injury at 1000 g/ha: Triticum aestivum, 240 h, read-out: Plant response rating, Wheat.
Excerpt: as §1

The subject of assay [4] is barnyardgrass (Echinochloa crus-galli). Particulars: 1000 g ai/ha, 0 to 100 scale (0 no effect, 100 complete control); for pest or weed control at 1000 g/ha: Echinochloa crus-galli, 240 h, read-out: Plant response rating, Barnyardgrass.
Excerpt: as §1

The subject of a further assay is corn (Zea mays). The settings on record: 1000 g ai/ha, 0 to 100 scale (0 no effect, 100 complete control); for Corn plant response rating (crop injury, 0 = no effect, 100 = complete kill) at 1000 g/ha: Zea mays, 240 h.
Excerpt: as §1

The test system of assay [5] is pigweed (Amaranthus retroflexus). Particulars: 1000 g ai/ha, 0 to 100 scale (0 no effect, 100 complete control); for pest or weed control at 1000 g/ha: Amaranthus retroflexus, 240 h, read-out: Plant response rating, Pigweed.
Excerpt: as §1

For assay [6], the system named is velvetleaf (Abutilon theophrasti). The settings on record: 1000 g ai/ha, 0 to 100 scale (0 no effect, 100 complete control); for pest or weed control at 1000 g/ha: Abutilon theophrasti, 240 h, read-out: Plant response rating, Velvetleaf.
Excerpt: as §1

Assay [7] has as its system giant foxtail (Setaria faberii). Particulars: 1000 g ai/ha, 0 to 100 scale (0 no effect, 100 complete control); for pest or weed control at 1000 g/ha: Setaria faberi, 240 h, read-out: Plant response rating, Foxtail, Giant.
Excerpt: as §1

Read-outs that look alike come from different tables or passages of the source.

As to `OCc1cc(-c2ccccc2Oc2ncc(Cl)cn2)no1` [Compound 31, 3-[2-[(5-chloro-2-pyrimidinyl)oxy]phenyl]-5-isoxazolemethanol], the pest or weed control at 1000 g/ha came out at 30% in assay [1] (post-emergence, Postemergence); 0% in assay [1] (pre-emergence, Preemergence); 50% in assay [2] (post-emergence, Postemergence); 80% in assay [2] (pre-emergence, Preemergence); 10% in assay [4] (post-emergence, Postemergence); 0% in assay [4] (pre-emergence, Preemergence). Also, the pest or weed control at 1000 g/ha in assay [5] (post-emergence, Postemergence) was 30%; in assay [5] (pre-emergence, Preemergence), 0%; in assay [6] (post-emergence, Postemergence), 30%; in assay [6] (pre-emergence, Preemergence), 0%; in assay [7] (post-emergence, Postemergence), 30%; in assay [7] (pre-emergence, Preemergence), 30%. The plant injury at 1000 g/ha in assay [3] (post-emergence, Postemergence) was found to be 0%; in assay [3] (pre-emergence, Preemergence) it was 0%. Further, the Corn plant response rating (crop injury, 0 = no effect, 100 = complete kill) at 1000 g/ha in the assay with corn (Zea mays) (post-emergence, Postemergence) worked out at 0%; with corn (Zea mays) (pre-emergence, Preemergence) it was 0%.
Regarding `Clc1cnc(Oc2ccccc2-c2cnco2)nc1` [Compound 7], the “Plant response rating, Morningglory” value in assay [1] (Postemergence) is recorded as 40; in assay [1] (Preemergence), 0. Also, the “Plant response rating, Crabgrass, Large” value in assay [2] (Postemergence) is 20; in assay [2] (Preemergence), 40. The entries for the “Plant response rating, Wheat” value in assay [3] (Postemergence) and in assay [3] (Preemergence) were 10 and 0, respectively. Moreover, the “Plant response rating, Barnyardgrass” value in assay [4] (Postemergence) and in assay [4] (Preemergence) was 10 throughout. The “Plant response rating, Corn” value in the assay with corn (Zea mays) (Postemergence) worked out at 10; in the assay with corn (Zea mays) (Preemergence) it was 0. The “Plant response rating, Pigweed” value is reported as 20 in assay [5] (Postemergence) and 40 in assay [5] (Preemergence). The “Plant response rating, Velvetleaf” value in assay [6] (Postemergence) and in assay [6] (Preemergence) was 10 in each case. The “Plant response rating, Foxtail, Giant” value in assay [7] (Postemergence) and in assay [7] (Preemergence) was 20 throughout.
Turning to `Clc1cnc(Oc2ccccc2-c2cncs2)nc1` [Compound 9], the “Plant response rating, Morningglory” value in assay [1] (Postemergence) was determined as 50; in assay [1] (Preemergence), 0. Also, the results for the “Plant response rating, Crabgrass, Large” value in assay [2] (Postemergence) and in assay [2] (Preemergence) were 50 and 70, respectively. Moreover, the “Plant response rating, Wheat” value worked out at 10 in assay [3] (Postemergence) and 0 in assay [3] (Preemergence). Also, the results for the “Plant response rating, Barnyardgrass” value in assay [4] (Postemergence) and in assay [4] (Preemergence) were 10 and 20, respectively. The “Plant response rating, Corn” value with corn (Zea mays) (Postemergence) amounted to 10; in the assay on corn (Zea mays) (Preemergence), 0. Besides, the “Plant response rating, Pigweed” value in assay [5] (Postemergence) is 60; in assay [5] (Preemergence) it was 90. The “Plant response rating, Velvetleaf” value is 40 in assay [6] (Postemergence) and 10 in assay [6] (Preemergence). The entries for the “Plant response rating, Foxtail, Giant” value in assay [7] (Postemergence) and in assay [7] (Preemergence) were 20 and 60, respectively.
In the case of `O=Cc1cc(-c2ccccc2Oc2ncc(Cl)cn2)no1` [Compound 33, 3-[2-[(5-chloro-2-pyrimidinyl)oxy]phenyl]-5-isoxazolecarboxaldehyde], the pest or weed control at 1000 g/ha in assay [1] (post-emergence, Postemergence) stood at 10%; in assay [1] (pre-emergence, Preemergence), 0%; in assay [2] (post-emergence, Postemergence), 10%; in assay [2] (pre-emergence, Preemergence), 80%; in assay [4] (post-emergence, Postemergence), 0%; in assay [4] (pre-emergence, Preemergence) it was 0%. Further, the pest or weed control at 1000 g/ha in assay [5] (post-emergence, Postemergence) came out at 10%; in assay [5] (pre-emergence, Preemergence), 40%; in assay [6] (post-emergence, Postemergence) it was 0%; in assay [6] (pre-emergence, Preemergence) it was 0%; in assay [7] (post-emergence, Postemergence), 10%; in assay [7] (pre-emergence, Preemergence), 10%. In addition, the plant injury at 1000 g/ha was 0% in assay [3] (post-emergence, Postemergence) and 0% in assay [3] (pre-emergence, Preemergence). Also, the Corn plant response rating (crop injury, 0 = no effect, 100 = complete kill) at 1000 g/ha was 0% in the assay with corn (Zea mays) (post-emergence, Postemergence) and 0% in the assay on corn (Zea mays) (pre-emergence, Preemergence).
Take `Clc1cnc(Oc2ccccc2-c2nnco2)nc1` [Compound 6]: the “Plant response rating, Morningglory” value in assay [1] (Postemergence) came out at 20; in assay [1] (Preemergence), 0. Also, the “Plant response rating, Crabgrass, Large” value came to 20 in assay [2] (Postemergence) and 0 in assay [2] (Preemergence). The “Plant response rating, Wheat” value in assay [3] (Postemergence) and in assay [3] (Preemergence) was 0 in each case. Besides, the “Plant response rating, Barnyardgrass” value in assay [4] (Postemergence) and in assay [4] (Preemergence) was 0 throughout. For the same compound, the “Plant response rating, Corn” value in the assay with corn (Zea mays) (Postemergence) and in the assay on corn (Zea mays) (Preemergence) was 0 each time. Moreover, the “Plant response rating, Pigweed” value in assay [5] (Postemergence) and in assay [5] (Preemergence) was 70 each time. Further, the “Plant response rating, Velvetleaf” value in assay [6] (Postemergence) worked out at 30; in assay [6] (Preemergence) it was 20. The “Plant response rating, Foxtail, Giant” value in assay [7] (Postemergence) and in assay [7] (Preemergence) was 0 throughout.
Consider `Clc1cnc(Oc2ccccc2-c2ncc(Cl)cn2)nc1` [Compound 3], for which the “Plant response rating, Morningglory” value is 60 in assay [1] (Postemergence) and 0 in assay [1] (Preemergence). In addition, the entries for the “Plant response rating, Crabgrass, Large” value in assay [2] (Postemergence) and in assay [2] (Preemergence) were 10 and 40, respectively. Moreover, the results for the “Plant response rating, Wheat” value in assay [3] (Postemergence) and in assay [3] (Preemergence) were 10 and 0, respectively. Besides, the entries for the “Plant response rating, Barnyardgrass” value in assay [4] (Postemergence) and in assay [4] (Preemergence) were 50 and 60, respectively. In addition, the results for the “Plant response rating, Corn” value in the assay with corn (Zea mays) (Postemergence) and in the assay with corn (Zea mays) (Preemergence) were 10 and 0, respectively. For the same compound, the “Plant response rating, Pigweed” value worked out at 70 in assay [5] (Postemergence) and 50 in assay [5] (Preemergence). Moreover, the “Plant response rating, Velvetleaf” value in assay [6] (Postemergence) was determined as 100; in assay [6] (Preemergence), 90. Besides, the “Plant response rating, Foxtail, Giant” value in assay [7] (Postemergence) is listed as 20; in assay [7] (Preemergence) it was 70.
Regarding `Clc1cnc(Oc2ccccc2-c2ncco2)nc1` [Compound 61], the “Plant response rating, Morningglory” value in assay [1] (Postemergence) turned out to be 10; in assay [1] (Preemergence), 0. The “Plant response rating, Crabgrass, Large” value in assay [2] (Postemergence) is 0; in assay [2] (Preemergence), 50. For the same compound, the “Plant response rating, Wheat” value in assay [3] (Postemergence) and in assay [3] (Preemergence) was 0 each time. Moreover, the “Plant response rating, Barnyardgrass” value is reported as 10 in assay [4] (Postemergence) and 20 in assay [4] (Preemergence). The “Plant response rating, Corn” value in the assay on corn (Zea mays) (Postemergence) and in the assay on corn (Zea mays) (Preemergence) was 0 each time. Further, the entries for the “Plant response rating, Pigweed” value in assay [5] (Postemergence) and in assay [5] (Preemergence) were 60 and 90, respectively. The “Plant response rating, Velvetleaf” value in assay [6] (Postemergence) came to 70; in assay [6] (Preemergence), 50. Also, the “Plant response rating, Foxtail, Giant” value in assay [7] (Postemergence) turned out to be 0; in assay [7] (Preemergence) it was 40.

The values above are taken from patent publication US10131652B2, “Pyrimidinyloxy benzene derivatives as herbicides” (E. I. DU PONT DE NEMOURS AND COMPANY, priority 2014, dated 2018).
